Experimental data published in PubChem BioAssay AID328 (DTP/NCI, 2004).
Values joined by “and” are separate entries in the source; they are usually repeats but may differ in a detail not shown here. Equal entries are not always repeated. Inconclusive results and toxic doses are left out.

Test system: BDF1 mice, P388 leukemia ip, median survival T/C
Test: NCI In Vivo Anticancer Drug Screen. Data for tumor model P388 Leukemia (intraperitoneal) in B6D2F1 (BDF1) mice
Conditions: endpoint: median survival time, higher = longer survival
In short: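 Read-out is survival of treated animals expressed relative to the vehicle group, as a T/C ratio.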

[1] = dose: 100.0 mg/kg/injection, schedule: Q04DX003 (ip), vehicle: saline with Tween-80
[2] = dose: 200.0 mg/kg/injection, schedule: Q01DX009 (ip), vehicle: saline with Tween-80
[3] = dose: 200.0 mg/kg/injection, schedule: Q04DX003 (ip), vehicle: saline with Tween-80
[4] = dose: 400.0 mg/kg/injection, schedule: Q01DX009 (ip), vehicle: saline with Tween-80
[5] = dose: 400.0 mg/kg/injection, schedule: Q04DX003 (ip), vehicle: saline with Tween-80
[6] = dose: 50.0 mg/kg/injection, schedule: Q01DX009 (ip), vehicle: Klucel (hydroxypropylcellulose) (HPC)
[7] = dose: 100.0 mg/kg/injection, schedule: Q01DX009 (ip), vehicle: Klucel (hydroxypropylcellulose) (HPC)
[8] = dose: 200.0 mg/kg/injection, schedule: Q01DX009 (ip), vehicle: Klucel (hydroxypropylcellulose) (HPC)
[9] = dose: 100.0 mg/kg/injection, schedule: Q01DX009 (ip), vehicle: saline with Tween-80
[10] = dose: 50.0 mg/kg/injection, schedule: Q01DX009 (ip), vehicle: saline with Tween-80
[11] = dose: 100.0 mg/kg/injection, schedule: Q04DX003 (ip), vehicle: saline
[12] = dose: 25.0 mg/kg/injection, schedule: Q04DX003 (ip), vehicle: saline
[13] = dose: 50.0 mg/kg/injection, schedule: Q01DX009 (ip), vehicle: saline
[14] = dose: 100.0 mg/kg/injection, schedule: Q01DX009 (ip), vehicle: saline
[15] = dose: 200.0 mg/kg/injection, schedule: Q01DX009 (ip), vehicle: saline
[16] = dose: 200.0 mg/kg/injection, schedule: Q04DX003 (ip), vehicle: saline
[17] = dose: 50.0 mg/kg/injection, schedule: Q04DX003 (ip), vehicle: saline
[18] = dose: 12.5 mg/kg/injection, schedule: Q01DX009 (ip), vehicle: saline with Tween-80

For CC1OC(n2ccc(NC(=O)c3ccc(NC(=O)C(C)(N)CO)cc3)nc2=O)CC(O)C1OC1OC(C)C(N(C)C)C(O)C1O (stereo not given), the T/C (dose: 2.5 mg/kg/injection, schedule: Q01DX009 (ip), vehicle: saline) was 106 % of control, the T/C (dose: 5.0 mg/kg/injection, schedule: Q01DX009 (ip), vehicle: saline) was 103 % of control and the T/C (dose: 10.0 mg/kg/injection, schedule: Q01DX009 (ip), vehicle: saline) was 111 % of control.

CCC[S-].CCC[S-].[C-]#[O+].[C-]#[O+].[C-]#[O+].[C-]#[O+].[Rh].[Rh] was tested, and the T/C [1] was 122 % of control, the T/C [2] was 90 % of control and the T/C [3] was 122 % of control. For the same compound, the T/C [4] was 100 % of control and the T/C [5] was 122 % of control.

Nc1cccc2c1C(=O)c1cccc(NC(=O)c3ccccc3)c1C2=O was tested, and the T/C (dose: 6.25 mg/kg/injection, schedule: Q01DX009 (ip), vehicle: Klucel (hydroxypropylcellulose) (HPC)) was 104 % of control, the T/C (dose: 12.5 mg/kg/injection, schedule: Q01DX009 (ip), vehicle: Klucel (hydroxypropylcellulose) (HPC)) was 109 % of control and the T/C (dose: 25.0 mg/kg/injection, schedule: Q01DX009 (ip), vehicle: Klucel (hydroxypropylcellulose) (HPC)) was 116 % of control. For the same compound, the T/C [6] was 113 % of control, the T/C [7] was 115 % of control and the T/C [8] was 122 % of control. The T/C (dose: 400.0 mg/kg/injection, schedule: Q01DX009 (ip), vehicle: Klucel (hydroxypropylcellulose) (HPC)) was 151 % of control.

CCN(CC)CCCNc1ncnc2onc(-c3ccccc3)c12 was tested, and the T/C (dose: 50.0 mg/kg/injection, schedule: Q01DX009 (ip), vehicle: other) was 107 % of control, the T/C (dose: 100.0 mg/kg/injection, schedule: Q01DX009 (ip), vehicle: other) was 105 % of control and the T/C (dose: 200.0 mg/kg/injection, schedule: Q01DX009 (ip), vehicle: other) was 96 % of control.

For CCCCCCC(=O)/C=C/c1ccc(Cl)cc1, the T/C [9] was 90 % of control, the T/C [2] was 91 % of control and the T/C [4] was 100 % of control.

For CCOC(=O)/C(C#N)=C1/CCCN1, the T/C [9] was 104 % of control, the T/C [2] was 100 % of control and the T/C [4] was 100 % of control.

For CC(C)COC(=O)C(C)Oc1ccc(Oc2ccc(Cl)cc2)cc1 (stereo not given), the T/C [10] was 98 % of control, the T/C [9] was 116 % of control and the T/C [2] was 91 % of control.

CN1CCN(c2nc3cccnc3s2)CC1 was tested, and the T/C [11] was 93 % of control.

For NC(CS/C(Cl)=C/Cl)C(=O)O (stereo not given), the T/C (dose: 1.5 mg/kg/injection, schedule: Q01DX009 (ip), vehicle: saline) was 95 % of control, the T/C (dose: 3.0 mg/kg/injection, schedule: Q01DX009 (ip), vehicle: saline) was 100 % of control and 109 % of control and the T/C (dose: 6.0 mg/kg/injection, schedule: Q01DX009 (ip), vehicle: saline) was 92 % of control and 95 % of control. For the same compound, the T/C (dose: 7.4 mg/kg/injection, schedule: Q01DX009 (ip), vehicle: saline) was 109 % of control, the T/C (dose: 11.0 mg/kg/injection, schedule: Q01DX009 (ip), vehicle: saline) was 113 % of control and the T/C (dose: 12.0 mg/kg/injection, schedule: Q01DX009 (ip), vehicle: saline) was 90 % of control. The T/C (dose: 16.0 mg/kg/injection, schedule: Q04DX003 (ip), vehicle: saline) was 120 % of control, the T/C (dose: 17.0 mg/kg/injection, schedule: Q01DX009 (ip), vehicle: saline) was 152 % of control and the T/C [12] was 120 % of control. For the same compound, the T/C (dose: 27.0 mg/kg/injection, schedule: Q01DX009 (ip), vehicle: saline) was 168 % of control and the T/C (dose: 35.0 mg/kg/injection, schedule: Q04DX003 (ip), vehicle: saline) was 104 % of control.

With NC(=O)C(N)CCSCC(=O)O (stereo not given) the T/C [13] was 88 % of control, the T/C [14] was 91 % of control and the T/C [15] was 94 % of control.

For Cc1nnc2ccnn2c1C, the T/C (dose: 1.56 mg/kg/injection, schedule: Q01DX009 (ip), vehicle: saline) was 108 % of control, the T/C (dose: 3.13 mg/kg/injection, schedule: Q01DX009 (ip), vehicle: saline) was 102 % of control and the T/C (dose: 6.25 mg/kg/injection, schedule: Q01DX009 (ip), vehicle: saline) was 108 % of control. For the same compound, the T/C (dose: 12.5 mg/kg/injection, schedule: Q01DX009 (ip), vehicle: saline) was 100 % of control.

With COC1CC(N=[N+]=[N-])C(OC(=O)c2ccccc2)C(C)O1 (stereo not given) the T/C [9] was 94 % of control, the T/C [1] was 101 % of control and the T/C [3] was 106 % of control. For the same compound, the T/C [5] was 106 % of control.

CC1(C)N=C(N)N=C(N)N1c1ccc(CNC(=O)Nc2ccc(S(=O)(=O)F)cc2)cc1 was tested, and the T/C [14] was 115 % of control, the T/C [11] was 150 % of control and the T/C (dose: 132.0 mg/kg/injection, schedule: Q04DX003 (ip), vehicle: saline) was 181 % of control and 190 % of control. The T/C [15] was 100 % of control, the T/C [16] was 150 % of control and 177 % of control and 205 % of control and the T/C (dose: 300.0 mg/kg/injection, schedule: Q04DX003 (ip), vehicle: saline) was 230 % of control and 154 % of control. For the same compound, the T/C (dose: 400.0 mg/kg/injection, schedule: Q04DX003 (ip), vehicle: saline) was 163 % of control.

In the case of CCCCCCCCCCC(C(=O)O)C1(C(=O)O)CCC(=O)O1 (stereo not given), the T/C [6] is reported as 107 % of control, the T/C [7] is reported as 107 % of control and the T/C [8] is reported as 98 % of control.

With COc1cc(N=Nc2ccc(O)c3ncccc23)c(OC)cc1N=Nc1ccc([N+](=O)[O-])cc1 the T/C (dose: 50.0 mg/kg/injection, schedule: Q01DX005 (ip), vehicle: saline with Tween-80) was 101 % of control and the T/C (dose: 100.0 mg/kg/injection, schedule: Q01DX005 (ip), vehicle: saline with Tween-80) was 111 % of control.

For CCN(CC)CC(=O)Nc1ccc(Cl)cc1C(O)c1ccccc1 (stereo not given), the T/C [13] was 103 % of control, the T/C [14] was 97 % of control and the T/C [15] was 100 % of control.

With CCOC(=O)c1c(C)cc(C)nc1[S][Sn]([Cl])([Cl])[S]c1nc(C)cc(C)c1C(=O)OCC the T/C [10] was 99 % of control, the T/C [9] was 107 % of control and the T/C [2] was 106 % of control.

In the case of COC1C(OC(=O)/C=C/C=C/C=C/C=C\C(=O)O)CCC2(CO2)C1C1(C)OC1CC=C(C)C (stereo not given), the T/C [17] is reported as 110 % of control, the T/C [11] is reported as 105 % of control and the T/C [16] is reported as 110 % of control.

O=C1NC2C(NC(=O)N2Cl)N1Cl (stereo not given) was tested, and the T/C [18] was 103 % of control, the T/C (dose: 25.0 mg/kg/injection, schedule: Q01DX009 (ip), vehicle: saline with Tween-80) was 100 % of control and the T/C [10] was 103 % of control.

For COC(OC)c1cc(=O)[nH]c(=S)n1Cl, the T/C (dose: 100.0 mg/kg/injection, schedule: Q04DX003 (ip), vehicle: Klucel (hydroxypropylcellulose) (HPC)) was 100 % of control, the T/C (dose: 200.0 mg/kg/injection, schedule: Q04DX003 (ip), vehicle: Klucel (hydroxypropylcellulose) (HPC)) was 104 % of control and the T/C (dose: 400.0 mg/kg/injection, schedule: Q04DX003 (ip), vehicle: Klucel (hydroxypropylcellulose) (HPC)) was 100 % of control.

For CNC(C)COc1ccccc1 (stereo not given), the T/C [12] was 104 % of control, the T/C [17] was 100 % of control and the T/C [11] was 90 % of control.

For FC(F)(F)C(F)(F)C(F)(F)c1nc2nc(Cl)c(Cl)nc2[nH]1, the T/C (dose: 3.12 mg/kg/injection, schedule: Q01DX009 (ip), vehicle: saline with Tween-80) was 115 % of control, the T/C (dose: 6.25 mg/kg/injection, schedule: Q01DX009 (ip), vehicle: saline with Tween-80) was 105 % of control and the T/C [18] was 95 % of control. For the same compound, the T/C (dose: 50.0 mg/kg/injection, schedule: Q04DX003 (ip), vehicle: saline with Tween-80) was 95 % of control and the T/C [1] was 90 % of control.
